Target: CCK2 receptor (Cavia porcellus, UniProt H0VZC5)
Test: Guinea-pig gastric corpeal muscle assay (pentagastrin-induced contraction)
Conditions: isolated guinea-pig gastric corpeal muscle strips, pentagastrin concentration-response curves, CCK1 receptors blocked
Method: Guinea-Pig Gastric Corpeal Muscle Assay
CCK2 receptor-mediated muscle contraction was measured in an isolated muscle-strip assay of guinea-pig gastric corpeal muscle according to the methods described by Roberts et al. (S. P. Roberts, E. A. Harper, G. F. Watt, V. P. Gerskowitch, R. A. Hull, N. P. Shankley, and J. W. Black, Br. J. Pharmacol., 1996, 118(7):1779-1789). In brief, strips of muscle were dissected and suspended in isolated tissue organ baths for isotonic muscle contraction recording. The baths, containing Krebs-Henseleit solution, were maintained at […]. and gassed continuously with 95% O2 and 5% CO2. CCK1 receptors known to be present in this assay were blocked using a selective concentration of a suitable CCK1 receptor antagonist (e.g. 2-NAP). The effectiveness of the test compounds was assessed by measuring their effect on contractile concentration-response curves obtained using a well-characterized surrogate for the hormone gastrin (pentagastrin). […]

Sequence of CCK2 receptor (H0VZC5 entry or part of it): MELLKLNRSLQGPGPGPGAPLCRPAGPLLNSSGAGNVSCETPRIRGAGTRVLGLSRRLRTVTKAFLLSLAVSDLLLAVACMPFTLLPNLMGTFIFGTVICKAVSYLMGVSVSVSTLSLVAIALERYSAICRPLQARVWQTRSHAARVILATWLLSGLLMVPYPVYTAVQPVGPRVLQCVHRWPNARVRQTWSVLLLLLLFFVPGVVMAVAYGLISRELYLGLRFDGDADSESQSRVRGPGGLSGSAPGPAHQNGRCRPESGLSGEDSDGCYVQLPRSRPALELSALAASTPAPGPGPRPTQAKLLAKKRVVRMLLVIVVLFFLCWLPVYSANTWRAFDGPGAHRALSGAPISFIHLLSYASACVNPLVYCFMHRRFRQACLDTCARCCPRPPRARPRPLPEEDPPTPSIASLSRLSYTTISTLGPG

- behaviour in the assay (mode of antagonism): competitive antagonist
SMILES: C[C@@H](NC(=O)c1ccc(Br)cc1NS(=O)(=O)c1cccc2nccnc12)c1ccc(F)cc1F [Example 2, (R)-4-Bromo-N-[1-(2,4-difluoro-phenyl)-ethyl]-2-(quinoxaline-5-sulfonylamino)-benzamide]
